Data: patent US8614206B2 (Genentech, Inc., priority 2011, dated 2013)
Like-named read-outs stand apart in the source and are kept apart here.

Columns and labels:
[1] = test system: BaF3 parental cells; assay: In vitro cell proliferation, BaF3 parental line + IL3 (CellTiter-Glo); format: cell-based, murine
Procedure: BaF3 parental line was obtained from the DSMZ repository. BaF3 lines transfected with PIM 1 or PIM2 were generated. Mouse IL-3 was purchased from R&D Systems. G418 was purchased from Clontech. Media for BaF3 parental line contained RPMI, 10% FBS, 2 mM L-Glutamine, 2 ng/mL mIL-3. Media for BaF3 PIM1 & 2 lines contained RPMI, 10% FBS, 2 mM L-Glutamine, 250 μg/mL.
BaF3, a murine interleukin-3 dependent pro-B cell line, parental cells, BaF3 PIM1 cells, BaF3 PIM2 cells, and MM1.S (multiple myeloma) cells were seeded at 2 k/well, 5 k/well, 5 k/well, and 10 k/well respectively, in a 384-well plate, at 45 μL/well. Test compound was added at 5 μL/well. BaF3 cells (parental and transfected) were incubated overnight, while MM1.S cells were incubated for 72 hours at 37° C., 5% CO2. CELL TITER GLO® Reagent (Promega) was added at 50 μL/well, the plates were incubated for 30 minutes, and their luminescence read on an HT Analyst. IC50/EC50 values for the test compound were calculated.

[2] = molecular target: PIM1 (Homo sapiens (Human), UniProt P11309); assay: Pim kinase inhibition, PIM1 LC3K (Example 901); format: biochemical
Text: Determination of the Pim kinase activity of a Formula I compound is possible by a number of direct and indirect detection methods.

[3] = test system: BaF3 PIM1 cells; assay: cells; conditions: Mus musculus, BaF3, read-out: Prolif BaF3 PIM1 (IC50), BaF3 PIM1 cells, incubated overnight
[4] = test system: MM1.S (multiple myeloma) cells; assay: In vitro cell proliferation, MM1.S multiple myeloma cells (CellTiter-Glo, ATP); format: cell-based; conditions: read-out: Prolif MM1S ATP (EC50)
Procedure: BaF3, a murine interleukin-3 dependent pro-B cell line, parental cells, BaF3 PIM1 cells, BaF3 PIM2 cells, and MM1.S (multiple myeloma) cells were seeded at 2 k/well, 5 k/well, 5 k/well, and 10 k/well respectively, in a 384-well plate, at 45 μL/well. Test compound was added at 5 μL/well. BaF3 cells (parental and transfected) were incubated overnight, while MM1.S cells were incubated for 72 hours at 37° C., 5% CO2. […] IC50/EC50 values for the test compound were calculated.

[5] = Mus musculus, BaF3, BaF3 parental cells with IL-3, incubated overnight, read-out: Prolif BaF3 IL3 (IC50)
[6] = Mus musculus, BaF3, BaF3 parental cells with IL-3, incubated overnight, read-out: Prolif BaF3 + IL3 (IC50)
[7] = BaF3 parental cells with IL-3, incubated overnight, read-out: Prolif BaF3 + IL3 (IC50)

Chain of PIM1 (P11309 whole entry): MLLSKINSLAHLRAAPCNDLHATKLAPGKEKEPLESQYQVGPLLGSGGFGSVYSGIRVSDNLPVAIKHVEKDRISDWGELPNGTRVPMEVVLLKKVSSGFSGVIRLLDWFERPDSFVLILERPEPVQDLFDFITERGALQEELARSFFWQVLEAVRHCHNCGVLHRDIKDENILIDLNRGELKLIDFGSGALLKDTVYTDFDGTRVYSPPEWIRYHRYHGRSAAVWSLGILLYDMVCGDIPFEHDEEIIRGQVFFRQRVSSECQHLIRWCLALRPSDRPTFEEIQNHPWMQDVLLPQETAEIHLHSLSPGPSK

Row | Compound | EC50 ([4]; Homo sapiens, MM1.S, 72 h) [µM] | EC50 ([4]; 72 hours) [µM] | IC50 [1, 6] [µM] | also measured
1 | Nc1sc(-c2c(F)cccc2F)nc1C(=O)Nc1cnn(CC(F)F)c1N1CCCC[C@H](N)C1 [Example 103, (S)-5-amino-N-(5-(3-aminoazepan-1-yl)-1-(2,2-difluoroethyl)-1H-pyrazol-4-yl)-2-(2,6-difluorophenyl)thiazole-4-carboxamide] | – | – | – | IC50 [1, 5]: 8.2 µM; Ki [2]: 0.083 nM; IC50 [3]: 4.2 µM
2 | Cn1ncc(NC(=O)c2nc(-c3c(F)cccc3F)sc2N)c1N1CC[C@@H](N)C[C@@H](F)C1 [Example 126, 5-amino-N-(5-((3R,5R)-5-amino-3-fluoroazepan-1-yl)-1-methyl-1H-pyrazol-4-yl)-2-(2,6-difluorophenyl)thiazole-4-carboxamide] | 0.11 | – | – | IC50 [1, 5]: > 25 µM
3 | Cn1ncc(NC(=O)c2nc(-c3c(F)cccc3F)sc2N)c1N1CCCC(C)(N)CC1 (stereo not shown) [Example 435, 5-amino-N-[5-(4-amino-4-methyl-azepan-1-yl)-1-methyl-pyrazol-4-yl]-2-(2,6-difluorophenyl)thiazole-4-carboxamide] | 1.8 | – | 9.8 | –
4 | Cn1ncc(NC(=O)c2nc(-c3c(F)cccc3F)sc2N)c1N1CCC(C)(N)CC(F)(F)C1 (stereo not shown) [Example 495, 5-amino-N-[5-(5-amino-3,3-difluoro-5-methyl-azepan-1-yl)-1-methyl-pyrazol-4-yl]-2-(2,6-difluorophenyl)thiazole-4-carboxamide] | 0.888 | – | 5.4 | –
5 | COC1(C)CC(N)CCN(c2c(NC(=O)c3nc(-c4c(F)cccc4F)sc3N)cnn2C)C1 (single isomer, unassigned) [Example 353, 5-amino-N-[5-(5-amino-3-methoxy-3-methyl-azepan-1-yl)-1-methyl-pyrazol-4-yl]-2-(2,6-difluorophenyl)thiazole-4-carboxamide] | – | 0.139 | – | IC50 [1, 7]: 25 µM
6 | Cn1ncc(NC(=O)c2nc(-c3c(F)cccc3F)sc2N)c1N1CCC[C@H](N)[C@@H](F)C1 (single isomer, unassigned) [Example 158] | 3 | – | – | IC50 [1, 5]: 11.6 µM
7 | Cn1ncc(NC(=O)c2nc(-c3c(F)cccc3F)sc2N)c1N1CCCC2(CCCN2)CC1 (stereo not shown) [Example 351, 5-amino-N-[5-(1,9-diazaspiro[4.6]undecan-9-yl)-1-methyl-pyrazol-4-yl]-2-(2,6-difluorophenyl)thiazole-4-carboxamide] | 4.9 | – | 5.6 | –
8 | Cn1ncc(NC(=O)c2nc(-c3c(F)cccc3F)sc2N)c1C1CCC(N)CC(C)(O)C1 (single isomer, unassigned) [Example 467, 5-amino-N-[5-(5-amino-3-hydroxy-3-methyl-cycloheptyl)-1-methyl-pyrazol-4-yl]-2-(2,6-difluorophenyl)thiazole-4-carboxamide] | – | 4.8 | – | IC50 [1, 7]: > 25 µM
9 | COC1CCN(c2c(NC(=O)c3nc(-c4ncccc4F)sc3N)cnn2C)CCC1N (racemic) [Example 323, 5-amino-N-[5-(4-amino-5-methoxy-azepan-1-yl)-1-methyl-pyrazol-4-yl]-2-(3-fluoro-2-pyridyl)thiazole-4-carboxamide] | 0.165 | – | > 25 | –
10 | Cn1ncc(NC(=O)c2nc(-c3c(F)cccc3F)sc2N)c1N1CCNC[C@]2(CCO2)C1 (single isomer, unassigned) [Example 483] | > 25 | – | > 25 | –
11 | Cn1ncc(NC(=O)c2nc(-c3c(F)cccc3F)sc2N)c1N1CC[C@H](O)[C@@](C)(N)CC1 [Example 424, 5-amino-N-(5-((4S,5S)-4-amino-5-hydroxy-4-methylazepan-1-yl)-1-methyl-1H-pyrazol-4-yl)-2-(2,6-difluorophenyl)thiazole-4-carboxamide] | 6.5 | – | > 25 | –
12 | Cn1ncc(NC(=O)c2nc(-c3c(F)cccc3F)sc2N)c1N1CC[C@H](N)C[C@@H](F)C1 (stereo in doubt) [Example 154, 5-amino-N-(5-(5-amino-3-fluoroazepan-1-yl)-1-methyl-1H-pyrazol-4-yl)-2-(2,6-difluorophenyl)thiazole-4-carboxamide] | 0.0651 | – | – | IC50 [1, 5]: 24.5 µM
13 | Cn1ncc(NC(=O)c2nc(-c3c(F)cccc3F)sc2N)c1N1CCC(N)CC2(CCO2)C1 (single isomer, unassigned) [Example 448, 5-amino-N-[5-(6-amino-1-oxa-9-azaspiro[3.6]decan-9-yl)-1-methyl-pyrazol-4-yl]-2-(2,6-difluorophenyl)thiazole-4-carboxamide] | – | 1.4 | > 25 | –
14 | Cn1ncc(NC(=O)c2nc(-c3c(F)cccc3F)sc2N)c1N1CCCC2(CNC2)C1 [Example 508, 5-amino-N-[5-(2,6-diazaspiro[3.5]nonan-6-yl)-1-methyl-pyrazol-4-yl]-2-(2,6-difluorophenyl)thiazole-4-carboxamide] | 3 | – | 25 | –
15 | Cn1ncc(NC(=O)c2nc(-c3c(F)cccc3F)sc2N)c1N1CCCC(C)(N)CC1 (racemic) [Example 411, 5-amino-N-[5-(4-amino-4-methyl-azepan-1-yl)-1-methyl-pyrazol-4-yl]-2-(2,6-difluorophenyl)thiazole-4-carboxamide] | 1.8 | – | 17.7 | –
16 | CNC1CCN(c2c(NC(=O)c3nc(-c4c(F)cccc4F)sc3N)cnn2C)CC(F)(F)C1 (stereo not shown) [Example 409, 5-amino-N-[5-[3,3-difluoro-5-(methylamino)azepan-1-yl]-1-methyl-pyrazol-4-yl]-2-(2,6-difluorophenyl)thiazole-4-carboxamide] | – | 0.903 | – | IC50 [1, 7]: 10.8 µM
17 | COC1(C)CC(N)CCN(c2c(NC(=O)c3nc(-c4c(F)cccc4F)sc3N)cnn2C)C1 (single isomer, unassigned) [Example 352, 5-amino-N-[5-(5-amino-3-methoxy-3-methyl-azepan-1-yl)-1-methyl-pyrazol-4-yl]-2-(2,6-difluorophenyl)thiazole-4-carboxamide] | – | 0.00869 | – | IC50 [1, 7]: 10.4 µM

Second part, led by results:

Row | EC50 ([4]; Homo sapiens, MM1.S, 72 h) [µM] | EC50 ([4]; 72 hours) [µM] | Compound | IC50 [1, 6] [µM] | also measured
18 | 0.0737 | – | [2H]C([2H])([2H])OC1CCN(c2c(NC(=O)c3nc(-c4c(F)cccc4F)sc3N)cnn2C)CCC1N (stereo not shown) [Example 492, 5-amino-N-[5-[4-amino-5-(trideuteriomethoxy)azepan-1-yl]-1-methyl-pyrazol-4-yl]-2-(2,6-difluorophenyl)thiazole-4-carboxamide] | 20.4 | –
19 | – | 14.7 | Cn1ncc(NC(=O)c2nc(-c3c(F)cccc3F)sc2N)c1N1CCC(N)C(O)CC1 (single isomer, unassigned) [Example 327, 5-amino-N-[5-(4-amino-5-hydroxy-azepan-1-yl)-1-methyl-pyrazol-4-yl]-2-(2,6-difluorophenyl)thiazole-4-carboxamide] | > 25 | –
20 | – | 0.0733 | CCOC1CCN(c2c(NC(=O)c3nc(-c4c(F)cccc4F)sc3N)cnn2C)CCC1N (stereo not shown) [Example 515, 5-amino-N-[5-(4-amino-5-ethoxy-azepan-1-yl)-1-methyl-pyrazol-4-yl]-2-(2,6-difluorophenyl)thiazole-4-carboxamide] | – | IC50 [1, 7]: 14.7 µM
21 | 3.2 | – | CC1CC(N)CCN(c2c(NC(=O)c3nc(-c4c(F)cccc4F)sc3N)cnn2C)C1 (stereo not shown) [Example 453, 5-amino-N-[5-(5-amino-3-methyl-azepan-1-yl)-1-methyl-pyrazol-4-yl]-2-(2,6-difluorophenyl)thiazole-4-carboxamide] | 14.1 | –
22 | – | 9 | COC1CCN(c2c(NC(=O)c3nc(-c4c(F)cccc4F)sc3N)cnn2C)CCC1N (stereo not shown) [Example 314, 5-amino-N-[5-(4-amino-5-methoxy-azepan-1-yl)-1-methyl-pyrazol-4-yl]-2-(2,6-difluorophenyl)thiazole-4-carboxamide] | 13.9 | –
23 | – | 0.663 | COC1CC(N)CCN(c2c(NC(=O)c3nc(-c4c(F)cccc4F)sc3N)cnn2C)C1 (stereo not shown) [Example 317, 5-amino-N-[5-(5-amino-3-methoxy-azepan-1-yl)-1-methyl-pyrazol-4-yl]-2-(2,6-difluorophenyl)thiazole-4-carboxamide] | – | IC50 [1, 7]: > 25 µM
24 | 4 | – | Cn1ncc(NC(=O)c2nc(-c3c(F)cccc3F)sc2N)c1N1CC[C@@H](O)[C@@H](O)CC1 [Example 457, 5-amino-2-(2,6-difluorophenyl)-N-(5-((4R,5S)-4,5-dihydroxyazepan-1-yl)-1-methyl-1H-pyrazol-4-yl)thiazole-4-carboxamide] | > 25 | –
25 | 0.415 | – | COC1(C)CCN(c2c(NC(=O)c3nc(-c4c(F)cccc4F)sc3N)cnn2C)CCC1N (stereo not shown) [Example 485, 5-amino-N-[5-(5-amino-4-methoxy-4-methyl-azepan-1-yl)-1-methyl-pyrazol-4-yl]-2-(2,6-difluorophenyl)thiazole-4-carboxamide] | 11.6 | –
26 | 0.124 | – | [2H]C([2H])([2H])n1ncc(NC(=O)c2nc(-c3c(F)cccc3F)sc2N)c1N1CC[C@@H](N)[C@H](F)CC1 [Example 451, 5-amino-N-[5-[(4R,5R)-4-amino-5-fluoro-azepan-1-yl]-1-(trideuteriomethyl)pyrazol-4-yl]-2-(2,6-difluorophenyl)thiazole-4-carboxamide] | 9.4 | –
27 | 8.8 | – | Cn1ncc(NC(=O)c2nc(-c3c(F)cccc3F)sc2N)c1N1CC[C@@H](O)[C@H](O)CC1 [Example 490, 5-amino-2-(2,6-difluorophenyl)-N-(5-((4R,5R)-4,5-dihydroxyazepan-1-yl)-1-methyl-1H-pyrazol-4-yl)thiazole-4-carboxamide] | > 25 | –
